The record followed here is patent US20220251052A1, “IMPROVED PROCESS FOR THE PREPARATION OF 2-(3,5-DICHLOROPHENYL)-1,3-BENZOXAZOLE-6-CARBOXYLIC ACID OR ITS PHARMACEUTICALLY ACCEPTABLE SALTS AND POLYMORPHS THEREOF” (MSN LABORATORIES PRIVATE LIMITED, R&D CENTER, priority 2019, published 2022).

The data set can be described thus: Solid-state stability of the crystalline form under stress conditions. The format is physicochemical. The following applies: 60±5° C. for 24 hours; 10 tons of pressure; UV light at 254nm for 24 hours; 75±5% relative humidity for 24 hours. On the procedure:
In third aspect of third embodiment, crystalline Form-R of Tafamidis of formula (I) is stable under stress conditions at 60±5° C. for 24 hours, 10 tons of pressure, under UV light at 254nm for 24 hours and higher humidity conditions of 75±5% relative humidity for 24 hours.

`O=C(O)c1ccc2nc(-c3cc(Cl)cc(Cl)c3)oc2c1` [Form-R, 2-(3,5-dichlorophenyl)-1,3-benzoxazole-6-carboxylic acid]: the “polymorphic stability under stress conditions (does not convert to any other polymorphic form)” value was “stable”.
